Test results: ChEMBL document CHEMBL3414430 (J Med Chem, 2015)
Converted amounts (≈) assume the structure as drawn. The source made the active and inactive calls. No cut-off for these calls is given here.

Experiments:
[1] = Solubility of the compound in PBS measured after overnight incubation by LYSA assay; type: physicochemical
Histone deacetylase 8 = biological target: T1, Histone deacetylase 8 (Homo sapiens, UniProt Q9BY41)
T1 sequence (Q9BY41 whole entry): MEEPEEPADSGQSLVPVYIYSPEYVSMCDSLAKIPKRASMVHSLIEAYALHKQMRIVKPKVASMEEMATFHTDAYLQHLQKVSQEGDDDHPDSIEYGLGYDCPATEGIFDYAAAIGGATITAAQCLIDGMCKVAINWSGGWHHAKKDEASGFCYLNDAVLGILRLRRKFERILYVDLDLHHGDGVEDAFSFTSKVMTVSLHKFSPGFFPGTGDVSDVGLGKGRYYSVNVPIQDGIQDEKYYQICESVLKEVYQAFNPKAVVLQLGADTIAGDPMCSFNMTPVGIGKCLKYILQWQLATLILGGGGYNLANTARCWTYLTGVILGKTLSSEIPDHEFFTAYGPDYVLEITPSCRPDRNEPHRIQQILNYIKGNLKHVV
Description: Inhibition of HDAC8 (unknown origin) using RHK(Ac)K(Ac)AMC as substrate

Histone deacetylase 1 = Histone deacetylase 1 (Homo sapiens, UniProt Q13547)
Histone deacetylase 1, sequence (Q13547 whole entry): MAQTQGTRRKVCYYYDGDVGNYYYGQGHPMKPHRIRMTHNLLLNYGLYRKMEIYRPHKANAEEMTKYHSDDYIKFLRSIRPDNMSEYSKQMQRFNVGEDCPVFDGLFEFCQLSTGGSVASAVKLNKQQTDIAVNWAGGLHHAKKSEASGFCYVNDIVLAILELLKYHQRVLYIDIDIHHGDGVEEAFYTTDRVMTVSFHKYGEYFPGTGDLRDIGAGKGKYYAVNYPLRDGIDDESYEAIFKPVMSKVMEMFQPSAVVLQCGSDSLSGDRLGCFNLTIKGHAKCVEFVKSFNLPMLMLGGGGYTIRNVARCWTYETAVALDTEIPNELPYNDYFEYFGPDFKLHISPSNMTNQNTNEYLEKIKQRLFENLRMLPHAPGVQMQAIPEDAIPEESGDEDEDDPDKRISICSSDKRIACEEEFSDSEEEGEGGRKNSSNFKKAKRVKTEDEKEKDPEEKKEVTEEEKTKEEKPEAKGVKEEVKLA
Description: Inhibition of HDAC1 (unknown origin) using RHKK(Ac)AMC as substrate

[2] = biological target: T2, Protein deacetylase HDAC6 (Homo sapiens, UniProt Q9UBN7)
T2 sequence (Q9UBN7 whole entry): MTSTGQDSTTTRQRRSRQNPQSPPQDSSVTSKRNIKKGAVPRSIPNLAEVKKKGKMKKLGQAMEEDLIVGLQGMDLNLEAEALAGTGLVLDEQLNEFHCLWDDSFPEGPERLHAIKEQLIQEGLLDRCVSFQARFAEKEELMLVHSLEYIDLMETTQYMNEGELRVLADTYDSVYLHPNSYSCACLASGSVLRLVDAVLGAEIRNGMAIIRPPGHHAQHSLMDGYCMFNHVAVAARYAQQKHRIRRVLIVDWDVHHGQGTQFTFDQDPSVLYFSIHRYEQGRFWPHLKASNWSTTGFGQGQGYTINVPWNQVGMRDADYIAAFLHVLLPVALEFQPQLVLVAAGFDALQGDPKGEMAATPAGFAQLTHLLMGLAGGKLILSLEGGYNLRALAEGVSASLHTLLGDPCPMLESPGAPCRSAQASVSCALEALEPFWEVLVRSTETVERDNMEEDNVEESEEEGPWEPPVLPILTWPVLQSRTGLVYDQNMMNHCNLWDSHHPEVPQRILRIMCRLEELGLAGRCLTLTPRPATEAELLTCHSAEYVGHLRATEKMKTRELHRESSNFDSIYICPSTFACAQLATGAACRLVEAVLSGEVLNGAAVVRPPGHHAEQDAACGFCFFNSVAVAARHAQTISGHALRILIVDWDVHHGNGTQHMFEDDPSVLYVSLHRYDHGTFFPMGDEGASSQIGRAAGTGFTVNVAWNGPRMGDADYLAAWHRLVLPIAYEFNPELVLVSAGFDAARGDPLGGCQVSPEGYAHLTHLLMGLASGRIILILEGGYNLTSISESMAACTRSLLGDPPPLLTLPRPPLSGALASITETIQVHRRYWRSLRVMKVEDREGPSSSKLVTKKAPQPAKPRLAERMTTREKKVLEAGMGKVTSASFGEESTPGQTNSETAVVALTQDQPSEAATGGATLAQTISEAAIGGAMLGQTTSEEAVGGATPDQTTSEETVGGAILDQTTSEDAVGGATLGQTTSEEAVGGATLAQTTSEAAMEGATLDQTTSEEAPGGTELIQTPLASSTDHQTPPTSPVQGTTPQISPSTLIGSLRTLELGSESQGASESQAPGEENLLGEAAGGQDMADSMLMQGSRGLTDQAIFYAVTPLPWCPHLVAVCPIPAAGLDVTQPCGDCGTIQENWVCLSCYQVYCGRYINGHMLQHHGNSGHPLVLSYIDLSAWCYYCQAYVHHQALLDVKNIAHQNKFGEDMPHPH
Description: Inhibition of HDAC6 (unknown origin) using RHKK(Ac)AMC as substrate

[3] = biological target: T3, Histone deacetylase 1/2/3/6 (Homo sapiens) (UniProt Q13547+O15379+Q9UBN7+Q92769); assay: Inhibition of HDAC1/HDAC2/HDAC3 in human HeLa cells assessed as induction of p21 gene expression at 10 uM after 15 hrs by luciferase reporter gene assay; type: cell-based
T3 sequence (O15379 whole entry, looked up, one chain of several): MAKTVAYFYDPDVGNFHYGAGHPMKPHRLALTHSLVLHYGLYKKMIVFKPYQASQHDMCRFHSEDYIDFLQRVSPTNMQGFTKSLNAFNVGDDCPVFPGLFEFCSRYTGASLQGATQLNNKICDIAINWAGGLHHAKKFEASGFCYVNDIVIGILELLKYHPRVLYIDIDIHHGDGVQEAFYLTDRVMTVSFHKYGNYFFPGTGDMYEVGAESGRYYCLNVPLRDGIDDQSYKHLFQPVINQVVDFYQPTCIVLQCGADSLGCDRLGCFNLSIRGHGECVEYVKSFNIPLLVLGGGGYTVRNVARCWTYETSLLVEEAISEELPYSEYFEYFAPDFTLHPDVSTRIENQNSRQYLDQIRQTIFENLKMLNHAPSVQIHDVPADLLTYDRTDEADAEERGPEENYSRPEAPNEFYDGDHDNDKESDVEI
T3 sequence (Q13547 whole entry, looked up, one chain of several): as the sequence (Q13547 whole entry) above
T3 sequence (Q92769 whole entry, looked up, one chain of several): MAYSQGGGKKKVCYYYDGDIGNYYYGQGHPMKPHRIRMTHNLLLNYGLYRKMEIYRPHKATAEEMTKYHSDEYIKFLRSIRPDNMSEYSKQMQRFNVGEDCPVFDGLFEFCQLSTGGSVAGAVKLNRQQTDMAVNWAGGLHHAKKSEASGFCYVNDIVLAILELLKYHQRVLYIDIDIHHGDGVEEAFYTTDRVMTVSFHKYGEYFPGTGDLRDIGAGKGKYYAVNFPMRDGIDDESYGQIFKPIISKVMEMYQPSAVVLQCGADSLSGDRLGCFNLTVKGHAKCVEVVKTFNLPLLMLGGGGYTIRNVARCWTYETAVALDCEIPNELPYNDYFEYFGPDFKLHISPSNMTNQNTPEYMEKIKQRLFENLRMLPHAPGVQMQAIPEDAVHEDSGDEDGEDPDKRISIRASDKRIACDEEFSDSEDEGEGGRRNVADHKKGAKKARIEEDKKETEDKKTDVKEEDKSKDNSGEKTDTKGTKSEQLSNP

[4] = biological target: T2, Protein deacetylase HDAC6; remark: listed apart in the source
Description: Inhibition of HDAC6 in human A549 cells assessed as induction of tubulin acetylation after 17 to 18 hrs by ELISA

[5] = biological target: T3, Histone deacetylase 1/2/3/6 (Homo sapiens); conditions: HeLa, at 10 µM
Description: Inhibition of HDAC1/HDAC2/HDAC3 in human HeLa cells assessed as induction of p21 gene expression at 10 uM after 15 hrs by luciferase reporter gene assay relative to HDAC1 inhibitor SNDX-275

[6] = Plasma clearance in ICR mouse; type: ADME, organism-based
[7] = Oral bioavailability in ICR mouse at 50 mg/kg; type: ADME, organism-based; conditions: in vivo
Mus musculus [8] = assay: AUC (0 to infinity) in ICR mouse at 50 mg/kg, po; type: ADME, organism-based, Plasma; parameters: time infinity, dose 50 mg/kg, route oral; conditions: in vivo
[9] = Intrinsic clearance in human liver microsomes at 1 uM preincubated for 10 mins followed by NADPH addition measured over 30 mins by LC-MS/MS analysis; type: ADME; conditions: read-out: CLH
Mus musculus [10] = assay: AUC (0 to infinity) in ICR mouse at 10 mg/kg, iv; type: ADME, organism-based, Plasma; parameters: time infinity, dose 10 mg/kg, route intravenous; conditions: in vivo
[11] = Intrinsic clearance in mouse liver microsomes at 1 uM preincubated for 10 mins followed by NADPH addition measured over 30 mins by LC-MS/MS analysis; type: ADME; conditions: read-out: CLH
[12] = Half life in ICR mouse at 10 mg/kg, iv; type: ADME, organism-based; parameters: dose 10 mg/kg, route intravenous; conditions: in vivo
[13] = biological target: T3, Histone deacetylase 1/2/3/6 (Homo sapiens); assay: Inhibition of HDAC1/HDAC2/HDAC3 in human HeLa cells assessed as induction of p21 gene expression at 3 to 10 uM after 15 hrs by luciferase reporter gene assay; type: cell-based
Mus musculus [14] = assay: AUC (0 to infinity) in ICR mouse at 100 mg/kg, po; type: ADME, organism-based, Plasma; parameters: time infinity, dose 100 mg/kg, route oral; conditions: in vivo
[15] = Oral bioavailability in ICR mouse at 100 mg/kg; type: ADME, organism-based; conditions: in vivo
[16] = Cmax in ICR mouse at 100 mg/kg, po; type: ADME, organism-based; parameters: dose 100 mg/kg, route oral; conditions: in vivo

solubility [1] [µg/mL] | IC50 (Histone deacetylase 8) [nM] | IC50 (Histone deacetylase 1) [nM] | IC50 [2] [nM] | EC50 [4] [nM] | SMILES | also measured
17 (≈ 49.2 µM) | 180 | 12100 | 90 |  | O=C(NO)c1ccc(NC2CCN(c3cccc(Cl)c3)C2=O)cc1 (stereo unspecified) | 
 | 940 | 52300 | 1770 | 19200 | CNc1ccc(C(=O)NO)cc1 | inhibition [5]: inactive
43 (≈ 113 µM) | 110 | 26700 | 250 | 16200 | O=C(NO)c1ccc(NC2CCN(c3ccc(C(F)(F)F)cc3)C2=O)cc1 (stereo unspecified) | 
203 (≈ 650 µM) | 4920 | > 100000 | 5740 | > 30000 | O=C(NO)c1ccc(OC2CCN(c3ccccc3)C2=O)cc1 (stereo unspecified) | inhibition [5]: inactive
> 385 | 760 | 11700 | 510 |  | O=C(NO)c1ccc(NC2CCN(Cc3ccccc3)C2=O)cc1 (stereo unspecified) | 
< 1 | 22400 | 29400 | 1070 | 17400 | O=C(NO)c1ccc(NC2CCN(c3ccc(Cl)cc3)C2=O)c(Cl)c1 (stereo unspecified) | 
415 (≈ 1280 µM) | 590 | > 100000 | 460 | 2600 | CC1(Nc2ccc(C(=O)NO)cc2)CCN(c2ccccc2)C1=O (stereo unspecified) | 
> 385 |  |  |  |  | O=C(CCCCCCC(=O)Nc1ccccc1)NO [VORINOSTAT] | clearance [6]: 112 mL/min/kg; bioavailability [7]: 8%; AUC (Mus musculus [8]): 619 µg/L/h; CLint scaled at 1 µM [9]: 0.1 mL/min/kg; AUC (Mus musculus [10]): 1486 µg/L/h; CLint scaled at 1 µM [11]: 33 mL/min/kg; half-life [12]: 24 min
< 1 |  |  |  | 13500 | O=C(NO)c1ccc(NC2CCN(c3ccc(Cl)cc3)C2=O)cc1F (stereo unspecified) | 
< 1 | 860 | 19200 | 860 |  | O=C(NO)c1ccc(NC2CCN(c3ccc(Cl)cc3)C2)cc1 (stereo unspecified) | CLint scaled at 1 µM [11]: 53 mL/min/kg
97 (≈ 249 µM) | 120 | 17100 | 140 |  | CS(=O)(=O)c1ccc(N2CCC(Nc3ccc(C(=O)NO)cc3)C2=O)cc1 (stereo unspecified) | 
24 (≈ 69.4 µM) | 150 | 21800 | 360 |  | O=C(NO)c1ccc(NC2CCN(c3ccccc3Cl)C2=O)cc1 (stereo unspecified) | 
< 1 | 120 | 14300 | 160 |  | O=C(NO)c1ccc(NC2CCN(c3ccc(Cl)cc3)C2=O)cc1 (stereo unspecified) | clearance [6]: 156 mL/min/kg; CLint scaled at 1 µM [9]: 8 mL/min/kg; AUC (Mus musculus [14]): 278 µg/L/h; bioavailability [15]: 3%; AUC (Mus musculus [10]): 1065 µg/L/h; inhibition [13]: inactive; CLint scaled at 1 µM [11]: 44 mL/min/kg; half-life [12]: 66 min; Cmax [16]: 57 ng/mL

Further lines, the compound ahead of its results:

SMILES | solubility [1] [µg/mL] | IC50 (Histone deacetylase 8) [nM] | IC50 (Histone deacetylase 1) [nM] | IC50 [2] [nM] | EC50 [4] [nM] | also measured
CC1(Nc2ccc(C(=O)NO)cc2)CCN(c2ccc(Cl)cc2)C1=O (stereo unspecified) | 6 (≈ 16.7 µM) | 410 | 11200 | 21 |  | inhibition [3]: Active
O=C(NO)c1ccc(NC2CCN(c3ccc(Cl)c(Cl)c3)C2=O)cc1 (stereo unspecified) | < 1 | 160 | 15900 | 63 |  | 
CC1(Nc2ccc(C(=O)NO)cc2)CCN(c2ccc3ncccc3c2)C1=O (stereo unspecified) | 17 (≈ 45.2 µM) | 76 | 6020 | 18 |  | inhibition [3]: Active
O=C(NO)c1ccc2c(c1)CC(Nc1nccc(-c3cccnc3)n1)CN2 (stereo unspecified) | 210 (≈ 579 µM) |  | 9960 | 12 |  | clearance [6]: 74 mL/min/kg; inhibition [5]: inactive
N#Cc1ccc(N2CCC(Nc3ccc(C(=O)NO)cc3)C2=O)cc1 (stereo unspecified) | 28 (≈ 83.2 µM) | 160 | 12800 | 100 | 3100 | 
O=C(NO)c1ccc(NC2CCN(CCc3ccccc3)C2=O)cc1 (stereo unspecified) | 63 (≈ 186 µM) | 260 | 8880 | 240 | 16600 | 
O=C(NO)c1ccc(NC2CCN(c3ccc4ccccc4c3)C2=O)cc1 (stereo unspecified) | < 1 |  |  |  | 1100 | 
CN(c1ccc(C(=O)NO)cc1)C1CCN(c2ccccc2)C1=O (stereo unspecified) |  | 8200 | > 100000 | 48800 | > 30000 | inhibition [5]: inactive
CN(C)CCOc1cccc(N2CCC(Nc3ccc(C(=O)NO)cc3)C2=O)c1 (stereo unspecified) | > 400 |  |  |  | 2000 | 
O=C(NO)c1ccc2c(c1)C[C@H](Nc1nccc(-c3cccnc3)n1)CC2 |  |  |  |  |  | clearance [6]: 99 mL/min/kg
C[C@@]1(Nc2ccc(C(=O)NO)cc2)CCN(c2ccc(Cl)cc2)C1=O | 34 (≈ 94.5 µM) | 590 | 24500 | 260 | 1900 | inhibition [13]: inactive
O=C(NO)c1ccc(NC2CC(=O)N(c3ccccc3)C2)cc1 (stereo unspecified) | > 350 | 6250 | > 100000 | 2260 | 18100 | inhibition [5]: inactive
